Measurements published in PMC11547813, “The Antifungal Effects of Berberine and Its Proposed Mechanism of Action Through CYP51 Inhibition, as Predicted by Molecular Docking and Binding Analysis” (Molecules, 2024).

Biological target: T1, CYP51Ca (recombinant protein CYP51 of C. albicans) (Candida albicans, UniProt P10613)
T1 construct: gene ERG11; commercial recombinant protein from Sangon Biotech (Shanghai)
Assay: biolayer interferometry (BLI), protein immobilised on APS sensor
Type: binding
Excerpt: biolayer interferometry (BLI), protein immobilised on APS sensor on CYP51Ca (recombinant protein CYP51 of C. albicans) | berberine binds to CYP51Ca in a dose-dependent manner, with a dissociation constant (KD)

T1 sequence (P10613 whole entry): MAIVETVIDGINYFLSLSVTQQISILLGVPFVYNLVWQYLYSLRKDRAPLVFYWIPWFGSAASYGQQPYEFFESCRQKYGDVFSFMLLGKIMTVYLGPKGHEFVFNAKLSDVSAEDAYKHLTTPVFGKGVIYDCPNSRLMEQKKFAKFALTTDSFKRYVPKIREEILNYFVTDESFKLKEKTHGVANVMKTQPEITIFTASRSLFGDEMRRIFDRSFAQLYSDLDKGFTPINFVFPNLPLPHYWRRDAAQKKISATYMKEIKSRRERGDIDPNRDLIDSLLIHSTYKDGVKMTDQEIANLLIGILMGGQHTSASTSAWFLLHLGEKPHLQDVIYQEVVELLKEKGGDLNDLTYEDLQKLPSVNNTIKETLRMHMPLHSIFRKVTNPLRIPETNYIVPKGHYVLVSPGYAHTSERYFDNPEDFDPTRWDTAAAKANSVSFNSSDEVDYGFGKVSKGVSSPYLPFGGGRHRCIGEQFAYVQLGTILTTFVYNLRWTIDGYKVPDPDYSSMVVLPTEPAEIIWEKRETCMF

**Q.** Which Kd does the source give for `COc1ccc2cc3[n+](cc2c1OC)CCc1cc2c(cc1-3)OCO2` [berberine] here?
**A.** < 1 pM
